One data set relates to WT mice. Put plainly: In vivo fructose-induced NASH model, wild-type mice. The following applies: 0.015 wt % in diet for 5 months. An excerpt:
Compound 1 was used to alleviate nonalcoholic steatohepatitis (NASH) in wild-type and Cisd2 hKO male mice described above.
Cisd2 hKO were bred for two generations. […] They were fed 30% (w/v) fructose (Alfa Aesar, Tewksbury, Mass.) in drinking water to establish a fructose-induced NASH model. Groups of mice at 2 months old were provided with a diet (AIN93G, TestDiet, St. Louis, Mo.) containing a vehicle (0.14 wt % of DMF and 0.15 wt % of Cremophor® EL) or Compound 1 (0.015 wt %) for 5 months. The food and drinking water were provided ad libitum.
Histopathology was used to evaluate the efficacy of Compound 1 in alleviating NASH. Liver tissues were processed and stained as described in Example 3 above.
An oral glucose tolerance test (GTT) and an insulin tolerance test (ITT) were performed to study beneficial effects of Compound 1 in the fructose-induced glucose intolerance and hepatic insulin resistant mouse model. In the oral glucose tolerance test, mice were fasted for 14 hours (7 p.m. to 9 a.m.) and then were orally administrated with glucose water (1.5 mg/g body weight) using a feeding needle. […] Blood glucose levels were measured using OneTouch® Ultra glucose test strips and SureStep® Meter (LifeScan, Milpitas, Calif.). […] Blood samples were collected and monitored at predetermined time points.

Another data set has as its system Cisd2 hKO-het mice. Put plainly: In vivo study for treating nonalcoholic fatty liver disease (NAFLD). Conditions: 0.015 wt % in diet for 4 weeks. Here is the method: Compound 1 was evaluated for its anti-nonalcoholic fatty liver disease (“NAFLD”) effect and in vivo toxicity following an assay described below.
Cisd2 floxed allele (Cisd2 f/f) mice were prepared following a procedure described in Wang et al., Hum. Mol. Genet.23, 4770-85 (2014). To obtain Cisd2 heterozygous hepatocyte-specific knockout (Cisd2 hKO-het, Cisd2 f/+; Alb-Cre Tg), Cisd2 f/f mice were bred with Albumin-Cre transgenic (Alb-Cre Tg, JAX003574) mice. After one generation, Cisd2 hKO-het mice were obtained. Male mice were chosen to be used in this study. All mice have a pure or congenic C57BL/6 background and were bred/housed in a specific pathogen-free facility with a 12 h light/12 h dark cycle at a temperature of 20-22° C. Groups of mice at 8 weeks old were provided a diet (AIN93G, TestDiet) containing a vehicle (0.14 wt % of DMF and 0.15 wt % of Cremophor® EL) or compound 1 (0.015 wt %) for 4 weeks.
Histopathology was used to evaluate the efficacy of Compound 1 in ameliorating NAFLD. Liver tissues were collected and fixed with 10% neutral buffered formalin at 4° C. overnight. They were then processed in a tissue processor (STP120, Microm, Thermo Fisher Scientific Inc., Waltham, Mass.), followed by embedding in paraffin. H&E of tissue sections (3-4 μm) were carried out by a standard protocol. […]

Data set [1] relates to Cisd2 promoter with firefly luciferase reporter (HEK293-CISD2). Nature of the data set: Cisd2-luciferase reporter assay. In kind it is cell-based. The following applies: Homo sapiens; HEK293-CISD2 cells, 24 h incubation, luciferase activity. On the procedure: Compounds 1-35 were tested for increasing the level of Cisd2 in human embryonic kidney cells 293 (HEK293), a transfected cell line expressing Cisd2, using the Cisd2-luciferase reporter assay as described below.
The transfected HEK293 cells stably expressed Cisd2 promoter with firefly luciferase reporter (“HEK293-CISD2”). They were kept in Dulbecco's modified Eagle's medium (“DMEM”) (Gibco, New York, N.Y.). Culture medium was supplemented with 10% heat-inactivated fetal bovine serum (“FBS”), 2 mM L-Glutamine, 1 mM sodium pyruvate, 0.1% MEM Non-Essential Amino Acids, 1 μg/ml puromycin and 1% penicillin/streptomycin (HyClone, Logan, Utah). The cells were maintained at 37° C. in an incubator (Thermo Fisher Scientific, Waltham, Mass.) with an atmosphere of 5% CO2. The stably transfected cells were seeded in 384-well plates at a density of 3×10^3 cells/well. After incubation with a tested compound at 37° C. for 24 h, ONE-Glo™ Luciferase Assay System (Promega, Madison, Wis.) was added at room temperature for 10 minutes to detect any luciferase activity. Luminescence intensity was registered using plate reader BioTek Synergy Neo2™ (Agilent, Santa Clara, Calif.).
EC50 values in this table are presented in […] classes, i.e., A: <1 μM and B: 1 μM-10 μM.
In general terms: Reporter assays use an easily measured gene product as a stand-in for the process of interest.

In general, pEC50 refers to −log10 of the EC50, conventionally taken in molar units.

Structures are written as SMILES. pEC50: −log10 of the molar value. Some results are limits rather than exact numbers.

In the case of `COC(=O)c1c(N)sc(C(=O)Nc2ccc(C)cc2C)c1C` [Compound 1, Methyl 2-amino-5-[(2,4-dimethylphenyl)carbamoyl]-4-methylthiophene carboxylate], the toxicity result with WT mice was “without obvious toxicity”. Also, the Cisd2 protein level with WT mice (30% fructose in drinking water, control group 0.4) is given as 0.8. In addition, the “liver and kidney toxicity (serum ALT, AST, BUN, CRE)” value in the data set with Cisd2 hKO-het mice was “without detectable liver and kidney toxicity”. For the same molecule, the “expression level of Cisd2 protein” value with Cisd2 hKO-het mice (Cisd2+/- mice, control group 0.43) is listed as 0.7. Further, the pEC50 in data set [1] was over 6.00.
